Measurements taken from PubChem BioAssay AID248 (DTP/NCI, 2004).
Toxic doses and inconclusive results are not listed. No stated cut-off is given here; in the data, active means T/C of 150% or more; inactive means T/C below 125%.

System: L1210 leukemia ip in BDF1 mice, survival T/C
Assay: NCI In Vivo Anticancer Drug Screen. Data for tumor model L1210 Leukemia (intraperitoneal) in B6D2F1 (BDF1) mice
Details: endpoint: mean survival time, higher = longer survival
How it was run: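 Transplantable tumor model; survival measured in treated vs vehicle control mice. Value = treated/control.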

[1] = dose: 100.0 mg/kg/injection, schedule: Q01DX009 (ip), vehicle: Klucel (hydroxypropylcellulose) (HPC)
[2] = dose: 100.0 mg/kg/injection, schedule: Q04DX003 (ip), vehicle: Klucel (hydroxypropylcellulose) (HPC)
[3] = dose: 200.0 mg/kg/injection, schedule: Q01DX009 (ip), vehicle: Klucel (hydroxypropylcellulose) (HPC)
[4] = dose: 200.0 mg/kg/injection, schedule: Q04DX003 (ip), vehicle: Klucel (hydroxypropylcellulose) (HPC)
[5] = dose: 400.0 mg/kg/injection, schedule: Q04DX003 (ip), vehicle: Klucel (hydroxypropylcellulose) (HPC)
[6] = dose: 50.0 mg/kg/injection, schedule: Q01DX009 (ip), vehicle: saline
[7] = dose: 100.0 mg/kg/injection, schedule: Q01DX001 (ip), vehicle: saline
[8] = dose: 100.0 mg/kg/injection, schedule: Q01DX009 (ip), vehicle: saline
[9] = dose: 100.0 mg/kg/injection, schedule: Q04DX003 (ip), vehicle: saline
[10] = dose: 200.0 mg/kg/injection, schedule: Q01DX001 (ip), vehicle: saline
[11] = dose: 200.0 mg/kg/injection, schedule: Q01DX009 (ip), vehicle: saline
[12] = dose: 200.0 mg/kg/injection, schedule: Q04DX003 (ip), vehicle: saline
[13] = dose: 400.0 mg/kg/injection, schedule: Q01DX001 (ip), vehicle: saline
[14] = dose: 100.0 mg/kg/injection, schedule: Q04DX002 (ip), vehicle: Klucel (hydroxypropylcellulose) (HPC)
[15] = dose: 200.0 mg/kg/injection, schedule: Q04DX002 (ip), vehicle: Klucel (hydroxypropylcellulose) (HPC)
[16] = dose: 400.0 mg/kg/injection, schedule: Q04DX002 (ip), vehicle: Klucel (hydroxypropylcellulose) (HPC)
[17] = dose: 100.0 mg/kg/injection, schedule: Q01DX001 (ip), vehicle: carboxymethylcellulose (CMC)
[18] = dose: 200.0 mg/kg/injection, schedule: Q01DX001 (ip), vehicle: carboxymethylcellulose (CMC)
[19] = dose: 400.0 mg/kg/injection, schedule: Q01DX001 (ip), vehicle: carboxymethylcellulose (CMC)
[20] = dose: 400.0 mg/kg/injection, schedule: Q04DX003 (ip), vehicle: saline
[21] = dose: 400.0 mg/kg/injection, schedule: Q01DX009 (ip), vehicle: Klucel (hydroxypropylcellulose) (HPC)
[22] = dose: 100.0 mg/kg/injection, schedule: Q04DX002 (ip), vehicle: saline with Tween-80
[23] = dose: 200.0 mg/kg/injection, schedule: Q04DX002 (ip), vehicle: saline with Tween-80

Measured: T/C

C/C(CC(C)C)=N/Nc1nc(C)cc(=O)[nH]1
inactive: [1] 92 % of control | [2] 105 % of control | [3] 97 % of control | [4] 100 % of control | [5] 92 % of control

CC1(C)C(=O)C(O)=C[C@@]2(C)C1=CC[C@H]1[C@@H]3CC[C@H](O)[C@@]3(C)CC[C@@H]12
inactive: dose: 100.0 mg/kg/injection, schedule: Q01DX001 (sc), vehicle: steriod suspending solution 97 % of control | dose: 200.0 mg/kg/injection, schedule: Q01DX001 (sc), vehicle: steriod suspending solution 104 % of control | dose: 400.0 mg/kg/injection, schedule: Q01DX001 (sc), vehicle: steriod suspending solution 97 % of control

CCCCCCCCCCCCCCCCCC1=NC(C)CC(C)(C)O1 (configuration not stated)
inactive: [6] 93 % of control | [7] 89 % of control | [8] 94 % of control | [9] 86 % of control | [10] 95 % of control | [11] 96 % of control | [12] 94 % of control | [13] 91 % of control

CCC12CCCN3C(=O)CC(C(=O)CC1)C32 (configuration not stated)
inactive: [9] 107 % of control

CCNc1nc(Cl)nc(C(Cl)(Cl)Cl)c1Cl (tested in a mixture with another compound)
inactive: [14] 104 % of control | [15] 96 % of control | [16] 100 % of control

O=C(Nc1ccccc1)c1nccc2ccccc12
inactive: dose: 100.0 mg/kg/injection, schedule: Q01DX001 (ip), vehicle: steriod suspending solution 117 % of control | dose: 200.0 mg/kg/injection, schedule: Q01DX001 (ip), vehicle: steriod suspending solution 109 % of control | dose: 400.0 mg/kg/injection, schedule: Q01DX001 (ip), vehicle: steriod suspending solution 108 % of control

CC1(C)CCC(CC(=O)O)(CC(=O)O)CC1
inactive: dose: 100.0 mg/kg/injection, schedule: Q04DX003 (ip), vehicle: saline with Tween-80 95 % of control | dose: 400.0 mg/kg/injection, schedule: Q04DX003 (ip), vehicle: saline with Tween-80 92 % of control

NC(=NC1CCCCC1)c1ccc(C(=O)OCc2ccccc2)cc1
inactive: [17] 94 % of control | [18] 89 % of control | [19] 94 % of control

Nc1ccccc1SC1CC(=O)N(c2ccccc2)C1=O (configuration not stated)
inactive: dose: 100.0 mg/kg/injection, schedule: Q01DX009 (ip), vehicle: other 95 % of control | [9] 94 % of control | dose: 200.0 mg/kg/injection, schedule: Q01DX009 (ip), vehicle: other 92 % of control | [12] 89 % of control | dose: 400.0 mg/kg/injection, schedule: Q01DX009 (ip), vehicle: other 92 % of control | [20] 91 % of control

CC(Cl)CO (configuration not stated)
inactive: dose: 75.0 mg/kg/injection, schedule: Q01DX001 (ip), vehicle: carboxymethylcellulose (CMC) 108 % of control | dose: 150.0 mg/kg/injection, schedule: Q01DX001 (ip), vehicle: carboxymethylcellulose (CMC) 97 % of control | dose: 300.0 mg/kg/injection, schedule: Q01DX001 (ip), vehicle: carboxymethylcellulose (CMC) 97 % of control

CCOC(=O)c1cc2c3n(c1=O)CCCC3C(c1ccccn1)OC2=O (configuration not stated)
inactive: [7] 92 % of control | [10] 98 % of control | [13] 103 % of control

CNC(=O)ON=C(C)C
inactive: dose: 75.0 mg/kg/injection, schedule: Q01DX001 (ip), vehicle: saline 102 % of control | dose: 75.0 mg/kg/injection, schedule: Q01DX009 (ip), vehicle: saline 99 % of control | dose: 150.0 mg/kg/injection, schedule: Q01DX001 (ip), vehicle: saline 102 % of control | dose: 150.0 mg/kg/injection, schedule: Q01DX009 (ip), vehicle: saline 94 % of control | dose: 300.0 mg/kg/injection, schedule: Q01DX001 (ip), vehicle: saline 109 % of control | dose: 300.0 mg/kg/injection, schedule: Q01DX009 (ip), vehicle: saline 108 % of control

Cc1ccc([N+](=O)[O-])cc1NC(=O)Nc1ccccc1F
inactive: [1] 89 % of control | [3] 92 % of control | [21] 87 % of control

CCCCCCCCCCCCCCCCCC(=O)NCCNC(=O)CCCCCCCCCCCCCCCCC
inactive: dose: 12.5 mg/kg/injection, schedule: Q04DX003 (ip), vehicle: Klucel (hydroxypropylcellulose) (HPC) 103 % of control | dose: 25.0 mg/kg/injection, schedule: Q01DX009 (ip), vehicle: Klucel (hydroxypropylcellulose) (HPC) 108 % of control | dose: 25.0 mg/kg/injection, schedule: Q04DX003 (ip), vehicle: Klucel (hydroxypropylcellulose) (HPC) 107 % of control | dose: 50.0 mg/kg/injection, schedule: Q01DX009 (ip), vehicle: Klucel (hydroxypropylcellulose) (HPC) 104 % of control | dose: 50.0 mg/kg/injection, schedule: Q04DX003 (ip), vehicle: Klucel (hydroxypropylcellulose) (HPC) 104 % of control | [1] 104 % of control | [2] 90 % of control | dose: 150.0 mg/kg/injection, schedule: Q01DX009 (ip), vehicle: Klucel (hydroxypropylcellulose) (HPC) 88 % of control | [4] 96 % of control

CCCCCCCC(=O)/C=C/c1ccc(C)cc1
inactive: [9] 105 % of control | [12] 103 % of control | [20] 92 % of control

CCCCC(=O)N/N=C\c1ccc2c(c1)OCO2
inactive: [7] 94 % of control | [10] 105 % of control | [13] 91 % of control

CC(=O)OCC(=O)c1cc(OC(C)=O)c(OC(C)=O)c(OC(C)=O)c1
inactive: [7] 91 % of control | [13] 94 % of control

CC1(C)C2CC3C(=CCCC3C(=O)O)C1C2 (configuration not stated)
inactive: [2] 97 % of control | [4] 103 % of control | [5] 95 % of control

CNC(=O)OC(C)(C)C#N
inactive: [22] 101 % of control | [23] 101 % of control | dose: 400.0 mg/kg/injection, schedule: Q04DX002 (ip), vehicle: saline with Tween-80 106 % of control

Nc1c(Br)cc(F)cc1[N+](=O)[O-]
inactive: [2] 97 % of control | [4] 96 % of control | [5] 96 % of control

CCC/C=C/C(C)C
inactive: [1] 105 % of control | [2] 93 % of control | [3] 92 % of control | [4] 97 % of control | [21] 95 % of control | [5] 101 % of control

CCCCCCCCCCOCCCCCCCCCC
inactive: [6] 92 % of control | [8] 92 % of control | [11] 89 % of control

CCCCC1CCC2=C(CC(O)(CCCC)CC3=C1C(=O)OC3=O)C(=O)OC2=O (configuration not stated)
inactive: [22] 106 % of control | [23] 95 % of control

CC(=O)CC(=O)Nc1cccc(Cl)c1
inactive: dose: 15.0 mg/kg/injection, schedule: Q01DX001 (ip), vehicle: carboxymethylcellulose (CMC) 108 % of control | dose: 30.0 mg/kg/injection, schedule: Q01DX001 (ip), vehicle: carboxymethylcellulose (CMC) 108 % of control

O=S1C=Cc2ccccc21 (configuration not stated)
inactive: [14] 101 % of control | [15] 116 % of control | [16] 105 % of control

O=C1C=C(c2c(-c3ccccc3)[nH]c3ccccc23)C(=O)c2ccccc21
inactive: dose: 100.0 mg/kg/injection, schedule: Q01DX001 (ip), vehicle: other 92 % of control | dose: 200.0 mg/kg/injection, schedule: Q01DX001 (ip), vehicle: other 97 % of control

O=C1c2ccccc2-c2c(Br)cccc21
inactive: dose: 50.0 mg/kg/injection, schedule: Q04DX002 (ip), vehicle: saline with Tween-80 91 % of control | [22] 91 % of control | [23] 102 % of control

Clc1ccc(Cc2ccc(Cl)cc2)cc1
inactive: [17] 107 % of control | [18] 100 % of control | [19] 102 % of control

Oc1ccccc1N=Cc1ccccc1
inactive: [7] 94 % of control | [10] 100 % of control | [13] 103 % of control
